Consider two compounds from patent US20090209568A1, “Spiro [Benzopyran] or Spiro [Benzofuran] Derivatives Which Inhibit the Sigma Receptor” (priority 2006, published 2009).

For assay [1], the system named is capsaicin-induced mechanical allodynia. As to the kind of experiment: Effect on capsaicin in development of mechanical allodynia (von Frey filaments). The conditions noted are these: 16 mg/kg i.p., mice, 1 μg capsaicin into paw, von Frey mechanical stimulus. In kind it is in vivo. The procedure: This model uses the von-Frey Filaments and is a model to test the effects or symptoms of neuropathic pain, allodynia etc. […] The test protocol for all tests with von Frey filaments: After habituation mice were first treated with the test-compound (or solvent in controls). Then 1 μg capsaicin (1% DMSO) is injected into their paw resulting in developing pain in the effected paw. The effected paw is then treated with a mechanical stimulus and the latency time before the paw is withdrawn is measured.

For the next assay, the target named is T1, σ1-receptor (Cavia porcellus, UniProt Q60492).
T1 construct: guinea pig brains were homogenized in 10 vols; (w/v) of Tris-HCl 50 mM 0.32 M sucrose; from tissue; host or cells: guinea pig brain membranes
T1 sequence (Q60492 whole entry): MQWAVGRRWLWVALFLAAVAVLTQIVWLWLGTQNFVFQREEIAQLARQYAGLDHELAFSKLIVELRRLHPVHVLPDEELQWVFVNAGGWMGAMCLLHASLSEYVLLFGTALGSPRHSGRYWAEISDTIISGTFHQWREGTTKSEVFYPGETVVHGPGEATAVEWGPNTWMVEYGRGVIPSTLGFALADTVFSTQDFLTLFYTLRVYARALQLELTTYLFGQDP
As to the kind of experiment: Sigma-1 receptor radioligand binding, [3H](+)pentazocine (Version A / Version B). On the set-up: species or system guinea pig. The following applies: guinea pig brain membranes; for inhibition at 0.1 µM: compound 10^−7 M; for inhibition at 0.01 µM: compound 10^−8 M. The procedure:
Brain membrane preparation and binding assays for the σ1-receptor were performed as described (DeHaven-Hudkins et al., 1992) with some modifications. In brief, guinea pig brains were homogenized in 10 vols. (w/v) of Tris-HCl 50 mM 0.32 M sucrose, pH 7.4, with a Kinematica Polytron PT 3000 at 15000 r.p.m. for 30 s. The homogenate was centrifuged at 1000 g for 10 min at 4° C. and the supernatants collected and centrifuged again at 48000 g for 15 min at 4° C. The pellet was resuspended in 10 volumes of Tris-HCl buffer (50 mM, pH 7.4), incubated at 37° C. for 30 min, and centrifuged at 48000 g for 20 min at 4° C. Following this, the pellet was resuspended in fresh Tris-HCl buffer (50 mM, pH 7.4) and stored on ice until use.
Each assay tube contained 10 μL of [^3H](+)pentazocine (final concentration of 0.5 nM), 900 μL of the tissue suspension to a final assay volume of 1 mL and a final tissue concentration of approximately 30 mg tissue net weight/mL. Non-specific binding was defined by addition of a final concentration of 1 μM haloperidol. All tubes were incubated at 37° C. for 150 min before termination of the reaction by rapid filtration over Schleicher & Schuell GF 3362 glass fibre filters [previously soaked in a solution of 0.5% polyethylenimine for at least 1 h]. Filters were then washed with four times with 4 mL of cold Tris-HCl buffer (50 mM, pH 7.4). Following addition of scintillation cocktail, the samples were allowed to equilibrate overnight. The amount of bound radioactivity was determined by liquid scintillation spectrometry using a Wallac Winspectral 1414 liquid scintillation counter. Protein concentrations were determined by the method of Lowry et al. (1951).
In brief the σ1-receptor preparation was prepared from guinea pig brain. The brains were homogenized in 5 to 6 times of volume sucrose solution (0.32M) and homogenized. The homogenate was centrifuged at 2900 rpm, 4° C., 10 min). the supernatant was centrifuged again (23500×g, 4° C., 20 min). The pellet was resuspended in Tris-buffer, incubated for 30 min at room temperature and centrifuged f (23500×g, 4° C., 20 min). The pellet was resuspended in cold TRIS-buffer and homogenized. Then the protein content was measured (approx. 1.5 mg/mL) and the homogenate frozen at −80° C. for later use.
The radioligand used was [^3H]-(+)-Pentazocin in TRIS-buffer. In a volume of 200 μL 50 μL TRIS-buffer, 50 μL compound solution of varying concentration, 50 μL radioligand-solution (8 nM; resulting in 2 nM in the assay) and finally 50 μL of receptor preparation (approx. 1.5 mg/mL) were given into a well of a microplate equipped with a filter. The plate was closed and stirred for 2.5 h at 37° C. and 500 rpm. Following that the solvents were removed by a harvester through the filter. After rinsing with H2O the filter was measured in a scintillation counter ([^3H]-protocol).

Regarding `CCCCN1CCC2(C1)OC(OC)Cc1ccccc12` (mixture of isomers) [Example 22, cis/trans-1′-Butyl-3-methoxy-3,4-dihydrospiro[[2]benzopyran-1,3′-pyrrolidin]], the “% of pain relief” value in assay [1] stood at 45.67±9.62%. At σ1-receptor, this compound registered an inhibition at 0.1 µM of 52% and an inhibition at 0.01 µM of 29%.

Take `COC1OC2(CCN(Cc3ccccc3)C2)c2ccccc21` (mixture of isomers) [Example 25, cis/trans-1′-Benzyl-3-methoxy-3H-spiro[[2]benzofuran-1,3′-pyrrolidin]]: the “% of pain relief” value in assay [1] is given as 44.28±9.49%. At σ1-receptor, this compound came in with an inhibition at 0.1 µM of 88% and an inhibition at 0.01 µM of 22.2%.

The inhibition is the drop in the measured response relative to a control, in per cent. Read a low inhibition as a response near the control.
